Data on two molecules can be found in paper PMC8617627, “Novel DYRK1A Inhibitor Rescues Learning and Memory Deficits in a Mouse Model of Down Syndrome” (Pharmaceuticals, 2021).

Like-named read-outs stand apart in the source and are kept apart here.

Some targets named below: MLK3 (Homo sapiens, UniProt Q16584); JAK2 (Homo sapiens, UniProt O60674); TTBK2 (Homo sapiens, UniProt Q6IQ55); CK1γ2 (Homo sapiens, UniProt P78368).
Common to all, as to assay: Kinase profile (33P ATP filter binding)
Assay type in all cases: biochemical

The target of a further assay is PKBa (Homo sapiens, UniProt P31749). As to conditions: read-out: Remaining protein kinase activity.
The next assay concerns the target STK33 (Homo sapiens, UniProt Q9BYT3). As to conditions: read-out: Remaining protein kinase activity.
The next assay has as its target MST4 (Homo sapiens, UniProt Q9P289). As to conditions: read-out: Remaining protein kinase activity.
A further assay addresses T1, MAP4K3 (Homo sapiens, UniProt Q8IVH8).
T1 sequence (Q8IVH8 1-894): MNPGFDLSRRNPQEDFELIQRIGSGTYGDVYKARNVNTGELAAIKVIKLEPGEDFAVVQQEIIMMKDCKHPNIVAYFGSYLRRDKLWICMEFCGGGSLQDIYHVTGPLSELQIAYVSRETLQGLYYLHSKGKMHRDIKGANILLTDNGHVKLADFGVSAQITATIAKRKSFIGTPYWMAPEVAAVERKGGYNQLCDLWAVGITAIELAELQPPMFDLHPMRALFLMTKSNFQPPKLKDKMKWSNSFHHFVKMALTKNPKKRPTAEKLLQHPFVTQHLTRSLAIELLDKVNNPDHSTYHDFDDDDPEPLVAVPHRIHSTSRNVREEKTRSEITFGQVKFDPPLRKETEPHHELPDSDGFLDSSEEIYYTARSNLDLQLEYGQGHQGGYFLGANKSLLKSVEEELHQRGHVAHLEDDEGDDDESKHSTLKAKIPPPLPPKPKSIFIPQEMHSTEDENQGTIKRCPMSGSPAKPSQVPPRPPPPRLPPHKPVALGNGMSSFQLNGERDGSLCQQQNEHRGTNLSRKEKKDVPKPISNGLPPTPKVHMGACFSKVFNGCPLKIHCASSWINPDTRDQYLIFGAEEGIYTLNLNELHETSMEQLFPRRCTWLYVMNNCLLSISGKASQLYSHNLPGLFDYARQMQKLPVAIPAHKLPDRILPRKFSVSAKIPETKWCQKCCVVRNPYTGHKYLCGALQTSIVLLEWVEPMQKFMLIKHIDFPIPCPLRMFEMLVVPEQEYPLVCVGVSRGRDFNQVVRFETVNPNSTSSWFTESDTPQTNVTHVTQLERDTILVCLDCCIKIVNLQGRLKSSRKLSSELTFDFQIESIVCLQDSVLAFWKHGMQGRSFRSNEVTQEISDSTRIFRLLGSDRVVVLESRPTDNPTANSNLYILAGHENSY

A further assay addresses MLK1 (Homo sapiens, UniProt P80192). As to conditions: read-out: Remaining protein kinase activity.
The target in a further assay is MARK3 (Homo sapiens, UniProt P27448). The following applies: read-out: Remaining protein kinase activity.
A further assay concerns the target T2, PDK1 (Homo sapiens, UniProt O15530).
T2 sequence (O15530 1-556): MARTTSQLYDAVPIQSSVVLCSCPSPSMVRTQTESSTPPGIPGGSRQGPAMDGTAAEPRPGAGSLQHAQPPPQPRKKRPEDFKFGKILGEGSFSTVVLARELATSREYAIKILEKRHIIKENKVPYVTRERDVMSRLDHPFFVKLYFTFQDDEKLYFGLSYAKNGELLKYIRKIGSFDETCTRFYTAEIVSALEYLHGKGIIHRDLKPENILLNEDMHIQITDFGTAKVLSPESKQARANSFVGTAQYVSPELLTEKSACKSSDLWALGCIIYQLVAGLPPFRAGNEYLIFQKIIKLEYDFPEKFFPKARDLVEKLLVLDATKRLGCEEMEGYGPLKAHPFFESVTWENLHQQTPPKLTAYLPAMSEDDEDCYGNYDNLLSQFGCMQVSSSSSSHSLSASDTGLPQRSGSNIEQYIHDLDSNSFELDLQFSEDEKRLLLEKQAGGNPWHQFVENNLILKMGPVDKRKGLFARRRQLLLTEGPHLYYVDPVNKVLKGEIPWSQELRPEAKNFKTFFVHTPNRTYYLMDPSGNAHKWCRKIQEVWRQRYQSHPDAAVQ
As to conditions: read-out: Remaining protein kinase activity.

Another assay deals with MEKK1 (Homo sapiens, UniProt Q13233). The following applies: read-out: Remaining protein kinase activity.
Chain of MEKK1 (Q13233 whole entry): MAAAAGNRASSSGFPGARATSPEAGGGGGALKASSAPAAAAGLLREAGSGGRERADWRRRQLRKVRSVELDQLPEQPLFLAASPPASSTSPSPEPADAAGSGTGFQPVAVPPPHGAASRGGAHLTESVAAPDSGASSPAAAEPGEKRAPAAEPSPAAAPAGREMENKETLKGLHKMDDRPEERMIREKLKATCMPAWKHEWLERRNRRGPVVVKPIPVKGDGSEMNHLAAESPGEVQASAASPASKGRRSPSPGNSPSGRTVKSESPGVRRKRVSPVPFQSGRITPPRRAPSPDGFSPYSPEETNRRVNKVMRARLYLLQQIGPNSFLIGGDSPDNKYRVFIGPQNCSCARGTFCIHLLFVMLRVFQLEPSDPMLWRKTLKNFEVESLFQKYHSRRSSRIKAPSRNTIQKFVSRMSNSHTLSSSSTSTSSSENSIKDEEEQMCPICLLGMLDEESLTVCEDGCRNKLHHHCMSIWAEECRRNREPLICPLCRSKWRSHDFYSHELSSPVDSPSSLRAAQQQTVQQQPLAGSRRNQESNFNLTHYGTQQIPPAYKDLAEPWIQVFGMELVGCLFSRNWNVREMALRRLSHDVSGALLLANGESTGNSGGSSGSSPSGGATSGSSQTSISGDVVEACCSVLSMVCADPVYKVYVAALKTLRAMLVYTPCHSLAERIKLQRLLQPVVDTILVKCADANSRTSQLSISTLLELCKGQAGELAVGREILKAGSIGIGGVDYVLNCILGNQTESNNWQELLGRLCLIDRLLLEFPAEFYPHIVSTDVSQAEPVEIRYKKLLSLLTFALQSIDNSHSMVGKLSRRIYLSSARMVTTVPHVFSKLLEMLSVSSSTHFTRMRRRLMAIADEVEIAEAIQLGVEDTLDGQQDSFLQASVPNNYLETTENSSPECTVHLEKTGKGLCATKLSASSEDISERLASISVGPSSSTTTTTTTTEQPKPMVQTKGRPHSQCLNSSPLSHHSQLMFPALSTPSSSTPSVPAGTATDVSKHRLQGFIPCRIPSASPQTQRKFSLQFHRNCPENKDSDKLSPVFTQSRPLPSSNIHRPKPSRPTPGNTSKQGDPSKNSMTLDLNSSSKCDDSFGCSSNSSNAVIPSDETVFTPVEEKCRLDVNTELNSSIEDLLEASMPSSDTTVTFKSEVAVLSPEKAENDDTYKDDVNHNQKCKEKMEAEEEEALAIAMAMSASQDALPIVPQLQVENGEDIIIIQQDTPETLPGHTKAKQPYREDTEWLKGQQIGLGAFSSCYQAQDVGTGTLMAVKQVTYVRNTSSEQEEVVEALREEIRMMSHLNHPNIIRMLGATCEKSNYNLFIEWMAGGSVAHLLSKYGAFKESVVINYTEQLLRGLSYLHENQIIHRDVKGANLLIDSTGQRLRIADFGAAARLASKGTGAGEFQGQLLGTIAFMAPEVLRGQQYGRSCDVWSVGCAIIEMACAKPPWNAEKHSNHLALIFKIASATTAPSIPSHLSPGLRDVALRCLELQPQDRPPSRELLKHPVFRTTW

Chain of PKBa (P31749 whole entry): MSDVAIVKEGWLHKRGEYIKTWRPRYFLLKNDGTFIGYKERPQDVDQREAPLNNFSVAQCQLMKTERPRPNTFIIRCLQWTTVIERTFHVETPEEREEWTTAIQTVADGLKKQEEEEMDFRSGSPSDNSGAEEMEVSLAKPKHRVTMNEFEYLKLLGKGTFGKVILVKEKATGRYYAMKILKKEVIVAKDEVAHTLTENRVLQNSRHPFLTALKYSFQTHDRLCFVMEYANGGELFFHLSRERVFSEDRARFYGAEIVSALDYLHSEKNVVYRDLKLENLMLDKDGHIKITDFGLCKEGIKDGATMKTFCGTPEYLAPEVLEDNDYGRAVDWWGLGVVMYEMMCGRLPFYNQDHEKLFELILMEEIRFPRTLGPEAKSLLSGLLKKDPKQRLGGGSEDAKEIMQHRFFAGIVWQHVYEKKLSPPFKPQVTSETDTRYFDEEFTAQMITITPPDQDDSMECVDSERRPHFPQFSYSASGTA
Chain of STK33 (Q9BYT3 whole entry): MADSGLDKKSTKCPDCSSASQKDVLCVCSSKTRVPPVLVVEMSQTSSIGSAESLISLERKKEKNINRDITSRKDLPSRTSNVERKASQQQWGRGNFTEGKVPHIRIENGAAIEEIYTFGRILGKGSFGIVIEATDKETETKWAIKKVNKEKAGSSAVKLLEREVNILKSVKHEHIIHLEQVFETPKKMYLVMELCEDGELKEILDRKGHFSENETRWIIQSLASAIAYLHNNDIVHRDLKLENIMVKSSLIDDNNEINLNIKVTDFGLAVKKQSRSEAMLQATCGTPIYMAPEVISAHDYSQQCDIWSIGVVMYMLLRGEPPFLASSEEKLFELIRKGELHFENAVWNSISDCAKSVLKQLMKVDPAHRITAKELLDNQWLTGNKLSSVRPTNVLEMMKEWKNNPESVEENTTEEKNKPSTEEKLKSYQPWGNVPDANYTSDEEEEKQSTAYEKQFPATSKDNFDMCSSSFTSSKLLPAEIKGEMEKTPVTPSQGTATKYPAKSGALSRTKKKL
Chain of MLK1 (P80192 whole entry): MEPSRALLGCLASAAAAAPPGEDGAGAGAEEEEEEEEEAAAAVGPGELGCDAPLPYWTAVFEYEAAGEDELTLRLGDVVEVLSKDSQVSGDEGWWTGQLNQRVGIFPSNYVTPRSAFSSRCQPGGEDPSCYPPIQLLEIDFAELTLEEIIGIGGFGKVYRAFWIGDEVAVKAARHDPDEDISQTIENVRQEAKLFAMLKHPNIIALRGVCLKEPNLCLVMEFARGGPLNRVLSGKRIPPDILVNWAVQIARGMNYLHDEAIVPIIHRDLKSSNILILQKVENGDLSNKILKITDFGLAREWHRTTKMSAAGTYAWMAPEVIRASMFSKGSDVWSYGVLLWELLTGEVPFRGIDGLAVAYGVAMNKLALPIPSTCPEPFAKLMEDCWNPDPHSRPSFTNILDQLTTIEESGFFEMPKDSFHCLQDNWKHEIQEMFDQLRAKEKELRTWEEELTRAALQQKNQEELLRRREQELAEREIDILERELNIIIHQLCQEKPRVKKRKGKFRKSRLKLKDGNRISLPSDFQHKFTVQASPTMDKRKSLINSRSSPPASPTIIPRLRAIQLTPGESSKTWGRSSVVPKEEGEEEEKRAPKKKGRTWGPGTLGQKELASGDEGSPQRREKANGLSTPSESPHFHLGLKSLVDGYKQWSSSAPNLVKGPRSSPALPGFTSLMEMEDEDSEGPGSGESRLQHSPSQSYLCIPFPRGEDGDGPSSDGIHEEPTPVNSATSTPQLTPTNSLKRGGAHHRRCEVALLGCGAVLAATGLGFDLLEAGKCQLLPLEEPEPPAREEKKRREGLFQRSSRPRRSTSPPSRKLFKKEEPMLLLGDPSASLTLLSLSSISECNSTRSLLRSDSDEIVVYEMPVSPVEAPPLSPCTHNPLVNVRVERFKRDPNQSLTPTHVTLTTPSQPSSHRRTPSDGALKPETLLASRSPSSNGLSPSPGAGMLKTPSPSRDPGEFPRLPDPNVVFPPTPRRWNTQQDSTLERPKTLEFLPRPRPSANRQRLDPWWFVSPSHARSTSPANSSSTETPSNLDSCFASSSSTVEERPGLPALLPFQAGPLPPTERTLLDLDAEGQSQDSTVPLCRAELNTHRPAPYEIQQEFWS
Chain of CK1γ2 (P78368 whole entry): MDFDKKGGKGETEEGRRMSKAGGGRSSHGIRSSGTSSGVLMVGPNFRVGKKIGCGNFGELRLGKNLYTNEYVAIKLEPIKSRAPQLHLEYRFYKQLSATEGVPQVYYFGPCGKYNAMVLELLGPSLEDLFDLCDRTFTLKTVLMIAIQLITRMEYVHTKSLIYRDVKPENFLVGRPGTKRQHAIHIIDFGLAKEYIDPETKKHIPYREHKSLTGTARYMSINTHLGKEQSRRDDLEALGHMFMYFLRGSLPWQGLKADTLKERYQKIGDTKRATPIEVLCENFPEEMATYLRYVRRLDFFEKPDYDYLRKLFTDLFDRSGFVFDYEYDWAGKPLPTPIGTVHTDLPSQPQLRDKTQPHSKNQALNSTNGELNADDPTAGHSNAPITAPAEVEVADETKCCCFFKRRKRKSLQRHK
Chain of MARK3 (P27448 whole entry): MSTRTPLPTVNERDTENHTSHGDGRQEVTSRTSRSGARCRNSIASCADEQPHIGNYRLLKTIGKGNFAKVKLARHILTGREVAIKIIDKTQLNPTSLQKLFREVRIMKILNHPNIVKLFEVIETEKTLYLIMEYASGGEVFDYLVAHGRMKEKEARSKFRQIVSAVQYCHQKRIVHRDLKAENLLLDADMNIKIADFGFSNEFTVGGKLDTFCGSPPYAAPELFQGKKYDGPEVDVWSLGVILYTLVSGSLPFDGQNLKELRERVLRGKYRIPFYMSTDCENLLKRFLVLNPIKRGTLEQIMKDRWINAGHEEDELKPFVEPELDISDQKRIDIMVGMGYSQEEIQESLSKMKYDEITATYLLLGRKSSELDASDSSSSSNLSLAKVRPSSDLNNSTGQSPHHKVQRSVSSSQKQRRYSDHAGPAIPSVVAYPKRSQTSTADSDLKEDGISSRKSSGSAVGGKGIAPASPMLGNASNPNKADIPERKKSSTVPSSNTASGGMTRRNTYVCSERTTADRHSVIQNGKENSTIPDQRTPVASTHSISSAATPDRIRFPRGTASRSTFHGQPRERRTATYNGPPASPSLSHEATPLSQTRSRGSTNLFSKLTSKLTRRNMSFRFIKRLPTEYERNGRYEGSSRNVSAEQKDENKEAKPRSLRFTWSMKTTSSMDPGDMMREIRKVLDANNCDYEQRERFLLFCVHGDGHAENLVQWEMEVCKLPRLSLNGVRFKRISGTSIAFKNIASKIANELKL

Broadly, the remaining activity is the signal under treatment as a percentage of the control signal. Take `COc1ccc2sc(-c3cncc(N)c3)nc2c1` [compound 1, 5-(5-Methoxybenzo[d]thiazol-2-yl)pyridin-3-amine]: the remaining activity at 1 µM at PKBa (PKBa, 1 μM) was 120%; on STK33 (STK33, 1 μM), 111%; at MST4 (MST4, 1 μM) it was 101%; at MLK1 (MLK1, 1 μM) it was 106%; on MARK3 (MARK3, 1 μM) it was 98%; at PDK1 (PDK1, 1 μM), 104%. At MEKK1 (MEKK1, 1 μM), the remaining activity at 1 µM came to 132%. In addition, the remaining activity at 100 µM on PKBa (PKBa, 100 μM) was found to be 72%; on STK33 (STK33, 100 μM), 57%; on MST4 (MST4, 100 μM) it was 72%; at MLK1 (MLK1, 100 μM), 16%; on MARK3 (MARK3, 100 μM), 34%; at PDK1 (PDK1, 100 μM), 67%. The remaining activity at 100 µM at MEKK1 (MEKK1, 100 μM) came to 107%. In addition, the “Remaining protein kinase activity” value stood at 101% at MLK3 (1 μM); 29% at MLK3 (100 μM); 117% on JAK2 (1 μM); 55% on JAK2 (100 μM); 98% on MAP4K3 (1 μM); 22% on MAP4K3 (100 μM). The “Remaining protein kinase activity” value is 123% at TTBK2 (1 μM), 103% at TTBK2 (100 μM), 108% at CK1γ2 (1 μM) and 24% at CK1γ2 (100 μM).
For the molecule `COc1ccc2sc(-c3cncc(NC(C)=O)c3)nc2c1` [PST-001, N-(5-(5-Methoxybenzo[d]thiazol-2-yl)pyridin-3-yl)acetamide], the remaining activity at 1 µM on PKBa is 116%; on STK33 it was 113%; at MST4, 112%; at MLK1, 108%; at MARK3 it was 99%; at PDK1, 110%. Also, the remaining activity at 1 µM on MEKK1 turned out to be 126%. In addition, the remaining activity at 100 µM at PKBa was 106%; at STK33 it was 112%; at MST4, 113%; at MLK1, 96%; at MARK3, 95%; on PDK1, 105%. On MEKK1, the remaining activity at 100 µM is 109%. In addition, the “Remaining protein kinase activity” value at MLK3 (1 μM) worked out at 109%; at MLK3 (100 μM) it was 60%; on JAK2 (1 μM), 123%; at JAK2 (100 μM) it was 125%; at MAP4K3 (1 μM), 111%; on MAP4K3 (100 μM), 94%. Further, the “Remaining protein kinase activity” value at TTBK2 (1 μM) was 119%; on TTBK2 (100 μM), 117%; on CK1γ2 (1 μM), 114%; at CK1γ2 (100 μM), 101%.
